# Experimental data: US20250215004A1, “AZOLO COMPOUNDS FOR TREATMENT OF FIBROTIC DISEASES” (GEORG-AUGUST-UNIVERSITÄT GÖTTINGEN STIFTUNG ÖFFENTLICHEN …, priority 2022, published 2025)
# How the values were obtained:
# Assay type in all cases: cell-based
# TK173 cells [1] = experiment: Collagen I Western blot in TGFβ1-treated TK173 fibroblasts; conditions: Homo sapiens, Fibroblast, 10 ng/ml TGFβ1 for 5 days, then compound 48 hours, Collagen I immunoblot
# Description: (§1) Compound reconstitution. Prior to treatment, each compound was used from a stock solution of a concentration of 10 mg/ml in DMSO. Final concentration of DMSO in cell cultures was kept below 0.1%.
# (§2) Cell culture and treatment. The human renal fibroblast cell line TK173 was derived from a normal human kidney (laboratory stock; (G. A. Müller et al., Exp. Nephrol. 1995, 3, 127). Cell line stabilization for research purposes was approved by the Ethics Committee of the Georg-August-University. TK173 cells were cultured in Dulbecco's modified Eagle's medium (DMEM, Gibco, USA) supplemented with 10% fetal bovine serum (FBS, Gibco, Germany) and 1% penicillin-streptomycin (PS, Gibco, USA) at 37° C. in a humidified atmosphere with 5% CO2. Cell line was routinely tested for mycoplasma contamination. To investigate the effect of compounds after profibrotic agent treatment, 3×10^4 TK173 cells were seeded in one well of a 6-well culture plate in normal medium. After 24 hours, the culture medium was removed, and the cells were incubated for a further 24 hours in FBS free culture medium (starvation medium). Then, 10 ng/ml TGFβ1 (R&D Systems, USA) was added to the starvation medium, and the culture medium was changed with fresh TGFβ1 in every alternate day. After 5 days of TGFβ1 treatment, cell culture medium was replaced by starvation medium with compounds at different concentration for following 48 hours of incubation.
# Protein Extraction. Total proteins were extracted from the cultured cells by NP40 Cell Lysis Buffer (Invitrogen, USA) containing phosphatase (Sigma-Aldrich, USA) and protease inhibitor (Roche, Switzerland) followed by sonication and centrifugation at 12,000×g for 20 minutes at 4° C. to clear the lysates. The supernatant was collected and measured using Pierce BCA Protein Assay Kit (ThermoFisher Scientific) by PHOmo Microplate Reader (Autobio, China). The samples were stored at −80° C. prior to use.
# Immunoblotting. Western blot analysis, 10 μg of extracted proteins were diluted in NuPAGE LDS Samples Buffer (Novex Life technologies, USA) containing 5% 2-Mercaptoethanol (Sigma-Aldrich, Germany), and following denatured for 5 minutes at 95° C. The proteins were resolved by 4-12% NuPAGE SDS-PAGE (Novex Life technologies, USA). Blots were often stripped with Thermo Scientific Restore PLUS Western Blot Stripping Buffer (Thermo Fisher Scientific, Germany) for reprobing. The following antibodies were used for immunoblotting: Collagen I (1:1000; ab233080, Abcam, USA), alpha smooth muscle Actin (1:1000; ab124964, Abcam, USA), GAPDH (1:8000; sc-32233, Santa Cruz, USA). Proteins were detected by LumiGLO chemiluminescent system (Cell Signaling Technology, USA) with appropriate secondary antibodies: anti-mouse HRP (1:2500; Dako, Denmark) and anti-rabbit HRP (1:2500; 7074, Cell Signaling Technology, USA) using ChemiDoc MP Imaging System (Bio-Rad, USA).
# TK173 cells [2] = experiment: ELISA to detect secreted type I collagen (Pro-Collagen I alpha 1) in conditioned media of TGFβ1-treated TK173 fibroblasts; conditions: Homo sapiens, Fibroblast, 10 ng/ml TGFβ1 for 5 days, then compound 48 hours, Pro-Collagen I alpha 1 ELISA of conditioned media, read-out: IC50, concentration where the TGFβ-stimulated collagen secretion is attenuated by 50%
# Description: as §1, §2
# Conditioned media containing the secretome of TK173 fibroblast were harvested after 48 hours of compound treatments. Secretion of pro-Collagen 1 was assessed with Human Pro-Collagen I alpha 1 DuoSet ELISA (R&D Systems, USA). To prepare the ELISA plate, Human Pro-Collagen I α1 Capture Antibody was diluted in ELISA Plate-coating Buffer at 4 μg/ml working concentration. 100 μl of diluted Capture Antibody was added to the 96-well microplates and incubated overnight at room temperature. After three times washing with Wash Buffer, microplates were blocked by adding 300 μl of Reagent Diluent for 1 hour at room temperature. To proceed the ELISA, Human Pro-Collagen I α1 Standards were diluted in Reagent Diluent (range between 31.3 pg/ml-2000 pg/ml) and 100 μl of standards or conditioned mediums were add into designated wells. Microplates were incubated at room temperature for 2 hours. Human Pro-Collagen I α1 Detection Antibody was prepared in Reagent Diluent at 100 ng/ml working concentration and 100 μl of diluted Detection Antibody was applied for 2 hours at room temperature after extensive washing. Then, working solution of Streptavidin-HRP with Reagent Diluent was prepared by diluting 1:40 and added into each well. After 20 minutes at room temperature incubation, microplates were washed and applied with 100 μl of Substrate Solution for 20 minutes followed by Stop Solution after washing. Finally, signals were measured at 450 nm absorbance by PHOmo Microplate Reader (Autobio, China). The amount of pro-collagen 1 antibody fusion was quantified by extrapolating the signal into a linear range of a pro-collagen 1 standard curve. Screening compounds were typically tested in at concentrations between 5 and 200 μg/ml. The IC50 values observed by the dose response curves for each compound (n=4-6, two independent experiments) were obtained by nonlinear regression analysis using Prism 9 software (GraphPad, La Jolla, USA) and represent the concentration where the TGFβ-stimulated collagen secretion is attenuated by 50%.
# TK173 cells [3] = experiment: Collagen I mRNA PCR assay (qPCR, normalized to GAPDH) in TGFβ1-treated TK173 fibroblasts; conditions: Homo sapiens, Fibroblast, 10 ng/ml TGFβ1 for 5 days, then compound 48 hours
# Description: as §1, §2
# RNA isolation. Total RNA was extracted by the TRIzol reagent (Life technologies, USA) and purified by PureLink RNA Mini Kit (Ambion, USA) according to instructions available from the manufacturer with minor modifications. The samples were stored at −80° C. prior to use. RNA concentrations were measured by NanoDrop Spectrophotometer (ThermoFisher Scientific, USA), and were equilibrated to 100 ng for complementary DNA (cDNA) synthesis.
# Quantitative real-time PCR analysis (qPCR). For SYBR Green-based qPCR analysis, cDNA preparation was performed by using DNAse I (Sigma-Aldrich, USA) digestion to remove residual genomic DNA and SuperScript II Reverse Transcriptase kit (Invitrogen, USA) to synthesize cDNA following the manufacturer's detailed instructions. All qPCR reactions were performed using the StepOne Plus Real-Time System (Applied Biosystems, USA) and amplifications were done using the SYBR Green PCR Master Mix (Applied Biosystems, USA). The thermal cycling conditions were initiated to 95° C. for 20 seconds, 40 amplification cycles at 95° C. for 3 seconds and 60° C. for 30 seconds, with one cycle of dissociation at 95° C. for 15 seconds, 60° C. for 60 seconds, and 95° C. for 15 seconds. Three replicates per sample were run in duplicate. The experimental cycle threshold (Ct) values were normalized to those obtained for GAPDH, and the relative gene expression level was determined using the 2_ddCT methods.
SMILES,IC50 (TK173 cells [1]) [µg/mL],IC50 (TK173 cells [2]) [µg/mL],IC50 (TK173 cells [3]) [µg/mL]
"c1ccc2c(c1)cnn1nnnc21 [Compound 1, Tetrazolo[5,1-a]phthalazine]",< 40,157,< 80
"Cc1nnc2c3ccccc3cnn12 [Compound 3, 3-Methyl-1,2,4-triazolo[3,4-a]phthalazine]",< 5,96,< 20
